In ChEMBL document CHEMBL3751828, “Discovery of imidazo[1,2-a]-pyridine inhibitors of pan-PI3 kinases that are efficacious in a mouse xenograft model” (Bioorg Med Chem Lett, 2016):

What was measured:
[1] = Cmax in CD rat at […], po by LC-MS analysis; assay type: ADME, organism-based; design: dose 2.5 mg/kg, route oral; details: in vivo
[2] = AUC (0 to last) in CD rat at […], po by LC-MS analysis; assay type: ADME, organism-based; design: dose 2.5 mg/kg, route oral, time 0 - last; details: in vivo
[3] = Apparent permeability of the compound from apical to basolateral side in human Caco2 cells; assay type: ADME, cell-based; details: Caco-2

Compound	Cmax [1] [µM]	AUC(0-t) [2] [µM·h]	Papp A→B [3] [×10⁻⁶ cm/s]
CC(=O)Nc1cn2cc(-c3cnc(N)c(OCC(F)(F)F)n3)ccc2n1	1.5	4	
COCCOc1nc(-c2ccc3nc(NC(C)=O)cn3c2)cnc1N	4	14	
COc1nc(-c2ccc3nc(NC(C)=O)cn3c2)cnc1N	8.9	15	
CC(=O)Nc1cn2cc(-c3cnc(N)c(OC(C)C(F)(F)F)n3)ccc2n1 (racemic)	3	49	41
CCOc1nc(-c2ccc3nc(NC(C)=O)cn3c2)cnc1N	3.6	7	
CC(=O)Nc1cn2cc(-c3cnc(N)c(OC(C)C)n3)ccc2n1	1.3	13	
